In US20100216749A1, “Combination Therapy for Neuroprotection” (S.H. PHARMA., LTD, priority 2007, published 2010):
“And” between values parts separate entries of the source, which are not always exact repeats. Equal entries are not always repeated.

How the values were obtained:
[1] = system: middle cerebral artery occlusion (MCAO) stroke animal model; test: Cerebral infarction volume by TTC staining of brain sections after 1 h MCAO/reperfusion; assay type: in vivo, rat; conditions: for concentration at which the size of cerebral infarction was inhibited most effectively: i.v. 1, 2, 5, 10 and 20 mg/kg; for cerebral infarction inhibited by: 4 hours after reperfusion (FIG. 11)
[2] = system: middle cerebral artery occlusion (MCAO) stroke animal model; test: Rota-rod test (motor skill) after MCAO/reperfusion; conditions: i.v. 5 mg/kg; for motor skill recovered to, by normal motor skill: 6 hours after MCAO/reperfusion (FIG. 9)
Procedure: Motor skill of a rat damaged by MCAO was investigated by measuring retention time on Rota-rod (Rota-rod test).
Retention time of each rat on Rota-rod at 5 rpm was measured for 24 hours after MCAO for 1 hour. Next, each rat was also forced to stay on Rota-rod operating at the speeds of 10 rpm and 15 rpm and retention time of each rat was measured at one hour interval. […] The points herein were obtained from repeated experiments, which were performed at 1 hour interval at the speeds of 10 rpm and 15 rpm.

[3] = system: middle cerebral artery occlusion (MCAO) stroke animal model; test: Evaluation of neurologic deficit (static reflex test and forelimb placing test) after MCAO/reperfusion; assay type: in vivo, rat; conditions: for neuronal damage / motor skill deficit improved: administered 6 hours after MCAO/reperfusion, Example 1 (FIG. 10)
Procedure: Forelimb placing was evaluated by the method described (0: immediate and complete placing, 1: incomplete and/or delayed placing, 2: no placing) (De Ryck M. et al., Stroke 20; 1388-1390). Points of static reflex and forelimb placing of each animal were summed.

stroke animal model = conditions: cited from earlier work
[4] = i.v. 2.5 mg/kg each drug, 6 hours after reperfusion (Examples 9-12)
[5] = i.v. 5 mg/kg each drug, 6 hours after reperfusion (Examples 3-8)
[6] = 6 hours after reperfusion (FIG. 23)
[7] = i.v. 2.5 mg/kg each drug, 6 hours after reperfusion (Examples 9-12), 2.5 mg/kg
[8] = administered 4 hours after neuronal damage, Example 2 (FIG. 13)
[9] = administered 6 hours after neuronal damage (Examples 4-7)

Compound: CC(=O)Oc1cc(C(F)(F)F)ccc1C(=O)O [2-acetoxy-4-(trifluoromethyl)benzoic acid]
- volume of cerebral infarction reduced by [1, 4]: 23%

Compound: O=C(O)c1ccc(C(F)(F)F)cc1O [2-hydroxy-4-trifluoromethylbenzoic acid]
- volume of cerebral infarction reduced by [1, 4]: 30%

Compound: CC(=O)Oc1ccccc1C(=O)O [acetylsalicylic acid]
- motor skill recovered to, by normal motor skill [2]: 30%
- neuronal damage / motor skill deficit improved [3]: very weak

Compound: CNCCC(Oc1ccc(C(F)(F)F)cc1)c1ccccc1 (centres unmarked) [fluoxetine chloride, N-methyl-[4-(trifluoromethyl)phenoxy]benzenepropaneamine]
- volume of cerebral infarction reduced by [1, 5]: 59%
- concentration at which the size of cerebral infarction was inhibited most effectively [1, 6]: 5 mg/kg

Compound: CCNC(=O)C(C)=O [pyruvoylaminoethane]
- volume of cerebral infarction reduced by [1, 7]: 20% and 25%

Compound: chloro-2-hydroxy-5-(2,3,5,6-tetrafluoro-4-(trifluoromethyl)benzylamino)benzoate
- cerebral infarction inhibited by ([1]; i.v. 5 mg/kg each drug): 30%
- neuronal damage improved / neurologic deficit recovered [3, 8]: very weak

Compound: chloro-2-hydroxy-5-(2-(2,4,5-trichlorophenoxy)ethylamino)benzoic acid
- volume of cerebral infarction reduced by [1, 5]: 64%
- neuronal damage improved / neurologic deficit recovered [3, 9]: very weak

Compound: chloro-2-hydroxy-5-(2-(4-methoxyphenoxy)ethylamino)benzoic acid
- volume of cerebral infarction reduced by [1, 5]: 53%
- neuronal damage improved / neurologic deficit recovered [3, 9]: very weak

Compound: chloro-2-hydroxy-5-(4-(trifluoromethyl)phenylethylamino)benzoate
- volume of cerebral infarction reduced by [1, 5]: 58%

Compound: chloro-5-(2-(2,4-dichlorophenoxy)ethylamino)-2-hydroxybenzoic acid
- volume of cerebral infarction reduced by [1, 5]: 61%
- neuronal damage improved / neurologic deficit recovered [3, 9]: very weak

Compound: chloro-5-(2-(4-chlorophenoxy)ethylamino)-2-hydroxybenzoic acid
- volume of cerebral infarction reduced by [1, 5]: 55%
- neuronal damage improved / neurologic deficit recovered [3, 9]: very weak

Compound: ethyl pyruvate (pyruvoyloxyethane) [EP]
- period spent on Rota-rod ([2]; 6 hours after MCAO/reperfusion (FIG. 4)): significantly longer period on Rota-rod
- motor skill recovered to, by normal motor skill [2]: 70%
- infarcted regions (TTC staining) compared with the control group ([1]; 5 mg/kg, 6 hours after reperfusion (FIG. 1)): significantly decreased
- volume of ischemia region ([1]; i.v. 1 mg/kg, 6 hours after reperfusion, 1 h MCAO (FIG. 2)): not changed
- cerebral infarction inhibited by ([1]; i.v. 5 mg/kg each drug): 48%
- volume of cerebral infarction reduced by [1, 5]: 66%
- infarction volume reduced to ([1]; i.v. 5 mg/kg, 30 minutes after reperfusion (FIG. 3)): 17.5%
- infarction volume reduced to ([1]; i.v. 5 mg/kg, 30 minutes before reperfusion (FIG. 3)): 9.0%
- infarction volume reduced to ([1]; i.v. 5 mg/kg, 6 hours after reperfusion (FIG. 3)): 34.0%
- volume of ischemia region reduced to, by the control animal ([1]; i.v. 5 mg/kg, 6 hours after reperfusion, 1 h MCAO (FIG. 2)): 33.6%
- infarction volume reduced to ([1]; i.v. 5 mg/kg, 9 hours after reperfusion (FIG. 3)): 58.7%
- infarction volume reduced to ([1]; i.v. 5 mg/kg, 12 hours after reperfusion (FIG. 3)): 58.0%
- infarction inhibiting effect when concentration increased ([1]; i.v. 10 mg/kg each versus 5 mg/kg, 6 hours after reperfusion (FIG. 23)): the effect was not increased
- volume of ischemia region reduced to, by the control animal ([1]; i.v. 10 mg/kg, 6 hours after reperfusion, 1 h MCAO (FIG. 2)): 41.7%
- volume of ischemia region reduced to, by the control animal ([1]; i.v. 20 mg/kg, 6 hours after reperfusion, 1 h MCAO (FIG. 2)): 61.6%
- concentration at which the size of cerebral infarction was inhibited most effectively [1, 6]: 5 mg/kg
- neuronal damage improved / neurologic deficit recovered [3, 8]: 40%
- neuronal damage / motor skill deficit improved [3]: 60%
- neuronal damage improved / neurologic deficit recovered [3, 9]: 40%
- neurologic deficit after MCAO/reperfusion ([3]; two days after MCAO/reperfusion (FIG. 5)): suppress neurologic deficit
- size of infarction reduced (stroke animal model; administered 24 hours after ischemia-reperfusion): approximately 20%
- size of infarction reduced to (stroke animal model; administered into the abdominal cavity 12 hours after ischemia-reperfusion): less than 50%

Compound: pyruvoylamininediethane
- volume of cerebral infarction reduced by [1, 7]: 40% and 31%
